Experimental data: patent US20250179033A1 (priority 2021, published 2025)
Like-named read-outs stand apart in the source and are kept apart here.

Experiments:
HIV-1 IIIB (wild-type) = assay: HIV inhibition assay in TZM-bl cells, wild-type; format: cell-based; conditions: Human immunodeficiency virus 1, IIIB, read-out: IC50 (TZM, WT)
Experimental: (§1) Cells and virus culture: TZM-bl cells (42), HIV-1 IIIB virus (43-45) and HIV-1 IIIB (A17 variant) virus (46) as well are the NNRTI resistant mutants (strain NL4-3) (47) were obtained from the NIH HIV Reagent Program. H9 [derivative of HuT 78]cells (ATCC® HTB176™) were obtained from the American Type Culture Collection (Manassas, Virginia, United States of America). These viruses were grown in H9 cells to high titer, which was tested using a HIV p24 (high sensitivity) The detection kit used was sold under the tradename ALPHALISA® Detection Kit (PerkinElmer, Waltham, Massachusetts, United States of America). The viruses were concentrated using Lenti-X Concentrator (Takara Bio USA, Inc., Mountain View, California, United States of America). Infections of TZM-bl cells with either virus was facilitated with 15 μg/mL DEAE-dextran.
(§2) Compounds were serially diluted starting with 10 mM stocks in DMSO. DMSO concentrations were kept the same for all dilutions used within an assay (either 0.005% or 0.05% depending on highest concentration used). Duplicate 96-well plates were set up with 25 μL compound dilution, 25 μL virus, and 50 μL TZM-bl cells (2×10^5/mL) with DEAE-dextran and incubated at 37° C. 5% CO2 for 48 hr. All compounds were tested in triplicate, with single wells of efavirenz dilutions on each plate. All plates had 3-5 control wells without compound, 1 control well with no cells, and 1 control well with a highly toxic level of DMSO (9%). Inhibition assays were set up in clear tissue-culture treated plates with lysates moved to black assay plates or were set up in black tissue culture-treated plates. Medium was removed and the cells were lysed with Glo Lysis Buffer (Promega, Madison, Wisconsin, United States of America). Luciferase Assay System reagent (Promega, Madison, Wisconsin, United States of America) was added to cells and relative light units (RLU) was measured using an EnSpire instrument (PerkinElmer, Waltham, Massachusetts, United States of America). Toxicity assays were set up in clear tissue culture-treated plates. CellTiter-Blue Cell Viability Assay reagent (Promega) was added to the wells after 46 hr incubation, followed by 2 hr incubation. Sodium lauryl sulfate was added to 1.5% to stop the reaction and the plates were measured for fluorescence (560 nmEx/590 nmEm) using an EnSpire instrument (PerkinElmer, Waltham, Massachusetts, United States of America).

[1] = molecular target: T1, HIV I reverse transcriptase (Human immunodeficiency virus type 1 group M subtype B, UniProt P03366); assay: Reverse transcriptase inhibition assay (Roche kit, ELISA); format: biochemical
T1 construct: purchased Roche
Experimental: NNRTI assay methods: Inhibition of HIV I reverse transcriptase was assessed via a kit from Roche (Indianapolis-Marion County, Indiana, United States of America) using the manufacture's protocol (500 μM final reverse transcriptase reaction amount). […] DMSO concentrations were kept the same for all dilutions used within an assay (0.05%). Final compound concentrations ranged from 5000 nM-0.05 nM with 2-fold serial dilutions. 96-well plates were set up with 20 μL compound dilution, 20 μL reverse transcriptase, and 20 μL template/nucleotides and incubated at 37° C. 5% CO2 for 1 hr in a reaction plate. 50 μL of each reaction was then transferred to a streptavidin conjugated 96-well plate and an ELISA assay was run based on manufacture's protocol. All compounds were tested in sextuplicate, with single wells of efavirenz dilutions on each plate.

[2] = system: HIV-1 IIIB A17 variant (Y181C/K103N); assay: HIV inhibition assay in TZM-bl cells, A17 variant; format: cell-based; conditions: Human immunodeficiency virus 1, IIIB, TZM-bl
Experimental: as §1, §2

TZM-bl cells = assay: Toxicity assay in TZM-bl cells; format: cell-based
Experimental: as §2

[3] = Toxicity assay in TZM-bl cells; format: cell-based; conditions: human
Experimental: as §2

[4] = Table 3, TZM-bl, ± SEM, minimum 6 replicates
[5] = read-out: IC50 (TZM, A17), Table 3, TZM-bl, ± SEM, minimum 6 replicates
[6] = read-out: IC50 (TZM, A17), Table 4, TZM-bl

SMILES | IC50 (HIV-1 IIIB (wild-type); [4]) | IC50 (HIV-1 IIIB (wild-type); Table 4, TZM-bl) | EC50 [1] | IC50 [2, 5] | IC50 [2, 6] | Qualitative Cell Toxicity within inhibition range (TZM-bl cells) | Quantitative Cell Toxicity (TZM-bl cells; human, 48 h) | CC50 at 48 h [3] | Qualitative Cell Toxicity within inhibition range (TZM-bl cells; Table 3, TZM-bl) | Quantitative Cell Toxicity (TZM-bl cells; Table 3, TZM-bl) | CC50 at 48 h ([3]; Table 4, TZM-bl, read-out: CC50 (TZM))
N#Cc1ccc(Nc2nc(N)n(S(=O)(=O)c3cccc4cc(C#N)ccc34)n2)cc1 [Compound 2, 5-[[5-amino-3-(4-cyanoanilino)-1,2,4-triazol-1-yl]sulfonyl]naphthalene-2-carbonitrile] | 1.11 ± 0.198 nM | 0.316 nM | 578 nM | 55 ± 4.01 nM | 24.4 nM | None | 578 nM | 7550 nM | – | – | –
N#Cc1ccc2c(S(=O)(=O)n3nc(Nc4ccc(C#N)c(Cl)c4)nc3N)cccc2c1 [Compound 5, 5-[[5-amino-3-(3-chloro-4-cyano-anilino)-1,2,4-triazol-1-yl]sulfonyl]naphthalene-2-carbonitrile] | 0.42 ± 0.0777 nM | 0.428 nM | 1710 nM | 39.6 ± 18.2 nM | 15.7 nM | – | – | – | None | 1710 nM | 6010 nM
N#Cc1ccc2c(S(=O)(=O)n3nc(Nc4ccc(C#N)c(C#N)c4)nc3N)cccc2c1 [Compound 14, 4-[[5-amino-1-[(6-cyano-1-naphthyl)sulfonyl]-1,2,4-triazol-3-yl]amino]phthalonitrile] | 0.684 ± 0.077 nM | 0.318 nM | 1350 nM | 37.2 ± 15.4 nM | 31.7 nM | None | 1350 nM | 31800 nM | – | – | –
N#C/C=C/c1ccc2c(S(=O)(=O)n3nc(Nc4ccc(CC#N)cc4)nc3N)cccc2c1 [Compound 21, 3-[5-[[5-amino-3-[4-(cyanomethyl)anilino]-1,2,4-triazol-1-yl]sulfonyl]-2-naphthyl]prop-2-enenitrile] | 0.255 ± 0.035 nM | 0.228 nM | 10900 nM | 5.42 ± 1.39 nM | 13.8 nM | None | 747 nM | 747 nM | – | – | –
Nc1nc(Nc2ccc(Cl)cc2)nn1S(=O)(=O)c1cccc2nonc12 [Compound 37, 1-(2,1,3-benzoxadiazol-4-ylsulfonyl)-N3-(4-chlorophenyl)-1,2,4-triazole-3,5-diamine] | 10.2 ± 1.46 nM | – | – | > 1000 nM | – | None | – | – | – | – | –
COc1ccc(Cl)cc1S(=O)(=O)n1nc(Nc2ccc(Cl)cc2)nc1N [Compound 38, 1-(5-chloro-2-methoxy-phenyl)sulfonyl-N3-(4-chlorophenyl)-1,2,4-triazole-3,5-diamine] | 177 ± 73.1 nM | – | – | > 1000 nM | – | None | – | – | – | – | –
Nc1nc(Nc2ccc(Cl)cc2)nn1S(=O)(=O)c1ccc(F)c(F)c1F [Compound 39, N3-(4-chlorophenyl)-1-(2,3,4-trifluorophenyl)sulfonyl-1,2,4-triazole-3,5-diamine] | 575 ± 104 nM | – | – | > 1000 nM | – | None | – | – | – | – | –
Nc1nc(Nc2ccc(Cl)cc2)nn1S(=O)(=O)c1ccc(Br)s1 [Compound 40, 1-[(5-bromo-2-thienyl)sulfonyl]-N3-(4-chlorophenyl)-1,2,4-triazole-3,5-diamine] | 15.1 ± 3.12 nM | – | – | > 1000 nM | – | None | – | – | – | – | –
Nc1nc(Nc2ccc(Cl)cc2)nn1S(=O)(=O)c1cc(Cl)sc1Cl [Compound 41, N3-(4-chlorophenyl)-1-[(2,5-dichloro-3-thienyl)sulfonyl]-1,2,4-triazole-3,5-diamine] | 10.1 ± 1.69 nM | – | – | 3680 ± 10900 nM | – | None | – | – | – | – | –
N#Cc1ccc2c(S(=O)(=O)n3nc(Nc4c(Cl)cc(Cl)cc4Cl)nc3N)cccc2c1 [Compound 42, 5-[[5-amino-3-(2,4,6-trichloroanilino)-1,2,4-triazol-1-yl]sulfonyl]naphthalene-2-carbonitrile] | 28.1 ± 6.75 nM | – | – | > 1000 nM | – | None | – | – | – | – | –
N#Cc1cccc(S(=O)(=O)n2nc(Nc3c(Cl)cc(Cl)cc3Cl)nc2N)c1 [Compound 43, 3-[[5-amino-3-(2,4,6-trichloroanilino)-1,2,4-triazol-1-yl]sulfonyl]benzonitrile] | 33.7 ± 9.93 nM | – | – | > 1000 nM | – | None | – | – | – | – | –
CC(=O)Nc1nc(C)c(S(=O)(=O)n2nc(Nc3cc(Cl)c(Cl)cc3Cl)nc2N)s1 [Compound 44, N-[5-[[5-amino-3-(2,4,5-trichloroanilino)-1,2,4-triazol-1-yl]sulfonyl]-4-methyl-thiazol-2-yl]acetamide] | 165 ± 121 nM | – | – | > 1000 nM | – | None | – | – | – | – | –
N#Cc1ccc(Nc2nc(N)n(S(=O)(=O)c3ccc(C(F)(F)F)nc3)n2)c(Cl)c1 [Compound 45, 4-[[5-amino-1-[[6-(trifluoromethyl)-3-pyridyl]sulfonyl]-1,2,4-triazol-3-yl]amino]-3-chloro-benzonitrile] | 36.1 ± 8.67 nM | – | – | > 1000 nM | – | None | – | – | – | – | –
N#Cc1ccc(Nc2nc(N)n(S(=O)(=O)c3cccc4nc(Cl)ccc34)n2)c(Cl)c1 [Compound 46, 4-[[5-amino-1-[(2-chloro-5-quinolyl)sulfonyl]-1,2,4-triazol-3-yl]amino]-3-chloro-benzonitrile] | 394 ± 264 nM | – | – | > 1000 nM | – | None | – | – | – | – | –
Cc1c(S(=O)(=O)n2nc(Nc3ccc(C#N)cc3)nc2N)sc2ccc(Cl)cc12 [Compound 48, 4-[[5-amino-1-(5-chloro-3-methyl-benzothiophen-2-yl)sulfonyl-1,2,4-triazol-3-yl]amino]benzonitrile] | 14 ± 2.44 nM | – | – | > 1000 nM | – | None | – | – | – | – | –
N#CCc1ccc(Nc2nc(N)n(S(=O)(=O)c3cnc(Cl)nc3)n2)cc1 [Compound 49, 2-[4-[[5-amino-1-(2-chloropyrimidin-5-yl)sulfonyl-1,2,4-triazol-3-yl]amino]phenyl]-acetonitrile] | 108 ± 31.8 nM | – | – | > 1000 nM | – | None | – | – | – | – | –
CC(=O)Nc1nc(C)c(S(=O)(=O)n2nc(Nc3ccc(CC#N)cc3)nc2N)s1 [Compound 50, N-[5-[[5-amino-3-[4-(cyanomethyl)anilino]-1,2,4-triazol-1-yl]sulfonyl]-4-methyl-thiazol-2-yl]acetamide] | 19.4 ± 3.8 nM | – | – | > 1000 nM | – | None | – | – | – | – | –
N#Cc1ccc(Nc2nc(N)n(S(=O)(=O)c3c(Cl)nc4sccn34)n2)cc1C#N [Compound 51, 4-[[5-amino-1-(6-chloroimidazo[2,1-b]thiazol-5-yl)sulfonyl-1,2,4-triazol-3-yl]amino]-phthalonitrile] | 0.223 ± 0.055 nM | – | – | > 1000 nM | – | None | – | – | – | – | –
Cc1nc(-c2ccc(S(=O)(=O)n3nc(Nc4ccc(C#N)cc4)nc3N)s2)cs1 [Compound 52] | 2.14 ± 0.812 nM | – | – | > 1000 nM | – | None | – | – | – | – | –
